Where a name gives a salt, the structure may show the parent alone.
Tests used:
[1] = Masking the bitter taste of a β-lactam antibiotic, difference testing and bitter intensity rating by 7 testers; format: in vivo
Excerpt: A solution of Faropenem Daloxate ([5R-[3(R*),5α,6α(R*)]]-6-(1-hydroxyethyl)-7-oxo-3-(tetrahydro-2-furanyl)-4-thia-1-azabicyclo[3.2.0]hept-2-ene-2-carboxylic acid (5-methyl-2-oxo-1,3-dioxol-4-yl)methyl ester, CAS No. 141702-36-5, 0.1% by weight in water, sample 1) and a mixture of Faropenem Daloxate+homoeriodictyol disodium salt (each 0.1% by weight in water, sample 2) were made up. A group of 7 testers were each given 3 samples for difference testing. 4 testers received sample 1 as a duplicate sample, 3 testers received sample 2 as a duplicate sample. The samples were tasted in differing orders. Of 7 testers, 7 correctly identified the individual sample. The average bitter intensity of sample 1 was rated 5, that of sample 2 was rated 2 (scale 1 to 5).

[2] = relatively high concentrations (450 ppm); cited from earlier work
[3] = Debittering black tea, bitterness rated by an expert group; format: in vivo; conditions: Tea sample 2 + 0.05% homoeriodictyol disodium salt; scale 1 just perceptibly bitter, 5 very bitter; tea sample 2 alone rated 5
Method: Two different types of black tea were brewed using boiling water (3 g of tea to 100 ml, allowed to infuse for 3 min, filter) and were then tasted by an expert group. The bitterness was rated using a scale of 1 to 5 (1 just perceptibly bitter, 5 very bitter).

## Cc1oc(=O)oc1COC(=O)C1=C([C@H]2CCCO2)S[C@@H]2[C@@H]([C@@H](C)O)C(=O)N12 (relative stereo) [Faropenem Daloxate, [5R-[3(R*),5α,6α(R*)]]-6-(1-hydroxyethyl)-7-oxo-3-(tetrahydro-2-furanyl)-4-thia-1-azabicyclo[3.2.0]hept-2-ene-2-carboxylic acid (5-methyl-2-oxo-1,3-dioxol-4-yl)methyl ester]
[1]; sample 1: Faropenem Daloxate alone, 0.1% by weight in water
  average bitter intensity (scale 1 to 5): 5

## COc1ccc(OC(C)C(=O)[O-])cc1.[Na+] (stereo not shown) [Lactisol, 2(-4-Methoxyphenoxy)propionic acid sodium salt]
[2]
  bitter-reducing effect: weak bitter-reducing effect

## COc1cc(C2CC(=O)c3c(O)cc(O)cc3O2)ccc1O (stereo not shown) [homoeriodictyol disodium salt, 2-(4-hydroxy-3-methoxyphenyl)-5,7-dihydroxychroman-4-one]
[3]
  Rating (1–5) of bitterness: 2
[1]; sample 2: Faropenem Daloxate + homoeriodictyol disodium salt, each 0.1% by weight in water
  average bitter intensity (scale 1 to 5): 2

Source: patent publication US8685436B2, “Use of hydroxyflavanones for masking bitter taste” (Symrise AG, priority 2001, dated 2014)
